Values quoted from earlier work, collected in patent US7160886B2, “Acylated piperazine derivatives as melanocortin-4 receptor agonists” (Merck & Co., Inc., priority 2003, dated 2007).

Tested on: men with erectile dysfunction
Details: for duration of effect / onset of action: after an oral dose; for patients in whom effective / adequate response: oral

| SMILES | duration of effect | onset of action [min] | patients in whom effective / adequate response |
| --- | --- | --- | --- |
| Cc1ccc(N(CC2=NCCN2)c2cccc(O)c2)cc1 [phentolamine] | 2 h | 5 to 30 | 35–40% |
| CCCc1nn(C)c2c(=O)[nH]c(-c3cc(S(=O)(=O)N4CCN(C)CC4)ccc3OCC)nc12 [sildenafil] | about 4 hours | 30 to 60 | about 70% |
